Consider seven molecules from patent publication US5501850A, “Use of benzimidazole derivatives as light protection filters” (Merck Patent Gesellschaft mit beschrankter Haftung, priority 1992, dated 1996).

Converted amounts (≈) assume the structure as drawn. Where two headings read alike, the source gives them in different places.

For data set [1] the following is noted: 280-320 nm; cited from earlier work.
The conditions of data set [2]: cited from earlier work.
Data set [3] can be described thus: UV spectra measured in a UV spectrometer (Perkin-Elmer), path length one centimeter. The data set is classed as physicochemical. The settings on record: ethanol, c=1 mg/100 ml. The protocol:
The UV spectra were measured in a UV spectrometer from Perkin-Elmer at a path length of one centimeter.

Another data set can be described thus: Solubility. The data set is classed as physicochemical. The following applies: organic solvent or mixture.

The solubility is the concentration that dissolves in the medium under given conditions.

Take `O=S(=O)(O)c1ccc2[nH]c(-c3ccccc3)nc2c1` [EUSOLEX® 232]: in data set [1], the “filter quality in the UVB range” value is “good filters”.

Regarding `Cc1ccc(C=C2C(=O)C3(C)CCC2C3(C)C)cc1` (stereo not shown) [EUSOLEX® 6300], the “filter quality in the UVB range” value in data set [1] was “good filters”.

As to `CC(C)c1ccc(C(=O)CC(=O)c2ccccc2)cc1` [EUSOLEX® 8020], the “stability when exposed to UV irradiation” value in data set [2] is recorded as “do not have an unlimited stability”.

For `CCCCC(CC)COc1ccc(OCC(CC)CCCC)c(-c2nc3ccccc3[nH]2)c1` (stereo not shown) [Example 1, 2-2',5'-Di(2-ethylhexyloxy)phenyl!benzimidazole], in data set [3], the “E at λmax1” value amounted to 0.34, the “E at λmax2” value is recorded as 0.30, the λmax1 amounted to 303 nm and the λmax2 is 328 nm.

As for `CCCCC(CC)COc1c(OC)ccc(-c2nc3ccccc3[nH]2)c1OC` (stereo not shown) [Example 2], in data set [3], the “E at λmax1” value was found to be 0.51, the “E at λmax2” value is reported as 0.45, the λmax1 is reported as 297 nm and the λmax2 is 308 nm. Besides, the solubility in “Solubility” (isopropanol, read-out: Solubility in Isopropanol) was 640 mg/mL (≈ 1670 mM). Moreover, the solubility in “Solubility” (miglyol, read-out: Solubility in Miglyol) stood at 590 mg/mL (≈ 1540 mM). Also, in “Solubility” (paraffin, read-out: Solubility in Paraffin), the solubility amounted to 57 mg/mL (≈ 149 mM).

For the molecule `COc1ccc(-c2nc3ccccc3[nH]2)c(OC)c1OC` [Example 2a, 2-(2',3',4'-Trimethoxy)phenylbenzimidazole], in data set [3], the “E at λmax1” value turned out to be 0.76, the “E at λmax2” value turned out to be 0.42, the λmax1 is on record as 309 nm and the λmax2 was found to be 323 nm.

Turning to `COc1ccc(C(=O)CC(=O)c2ccc(C(C)(C)C)cc2)cc1` [PARSOL® 1789], the “stability when exposed to UV irradiation” value in data set [2] was “do not have an unlimited stability”.
